{
  "source": "patent US7294755B1",
  "about": "(priority 1997, dated 2007)",
  "key": {"[1]": {"tested_on": "testicular cells within the seminiferous tubules", "experiment": "In vivo transduction of male germ cells using a viral vector (Example 14)", "set-up": "species or system C57BL/6J mice", "conditions": "4 μg/gm body wt IP, 44 days prior to viral infection", "text": "A retroviral vector was used to transduce (genetically alter or modify) male germ cells of mice in vivo. Specifically, a pseudo-typed HIV-derived viral vector (L. Naldini et al., In vivo gene delivery and stable transduction of nondividing cells by a Lentiviral vector, Science 272:263-67 [1996]), was used, as modified by Carlos Lois to express Green Flourescent Protein (GFP) instead of the LacZ reporter gene, under the transcriptional control of the CMV promoter (HR′GFP).\nRecipient C57BL/6J mice were treated with busulfan 44 days prior to viral infection. C57BL/6J male mice were injected intraperitoneally with 0.1 ml busulfan at a concentration of 1 mg/ml. The dose was 4 μg busulfan/gm body wt. One pretreated mouse was anesthetized with Avertin (0.017 mls/gm body wt.), and a ventral midline incision was made and the right testis exposed.\nThe vas efferentia were dissected away from the fat, and ten microlitres of HIV-derived GFP vector, HR′GFP, at a titer of 1×10^9 particles/ml were injected into the seminiferous tubules of the right testis via the vas efferens of a busulfan-treated C57 BL/6J mouse. Injection was done with a quartz glass micropipette attached to a Picospritzer II. The Picospritzer was set at 80 psi and gave 1 second bursts upon manual depression of a foot pedal. […]"}, "[2]": {"tested_on": "male germ cells of the testis", "experiment": "Depopulating the recipient testis of male germ cells, histologic analysis", "format": "in vivo, C57BL/6J mice", "conditions": "two months after treatment", "description": "Comparison of Depopulating Treatments. Eight-week-old C57BL/6J mice were allowed to acclimatize for a few days and then were assigned to one of the following three treatment groups. They received: (1) 400 Rad gamma irradiation; (2)4 μg/g body weight of busulfan (1,4-butanediol dimethanesulphonate; Myleran, Glaxo Wellcome); or (3) a combination treatment of busulfan (4 μg/g body wt) followed one week later by 400 Rad of gamma irradiation (“busulfan/400 Rad” treatment). A fourth group of untreated C57BL/6J mice of the same age as the treatment groups was used as a control. There were 24 mice in each treatment group, and 3 mice were sacrificed at each of the following time intervals after treatment: 5 hours, 24 hours, 48 hours, 72 hours, 1 week, 2 weeks, I month and 2 months after treatment. […]\nDelivery of an Alkylating Agent to Recipient Vertebrates. The male mice receiving busulfan received a dose of 4 μg busulfan per g body wt. The busulfan was first dissolved 8 mg/mL in 100% dimethyl sulfoxide (DMSO) then, immediately before injection, was diluted 1:1 in phosphate buffered saline, pH 7.4. The mice were injected with the diluted busulfan solution intraperitoneally. Irradiation Treatment of Recipient Vertebrates. For the gamma irradiation treatment, mice were anesthetized with 0.017 mL/g body wt. of 2.5% Avertin. Gamma irradiation was specifically directed to the testis in the following manner. Each mouse was placed in a lead chamber with only the testis and lower abdomen exposed through elliptical holes to the irradiating source (^137Cs Gammacell 40 irradiator [Nordion]). There were six aligned holes in the floor and roof of the chamber through which the gamma radiation passed unobstructed. After irradiation the animals were allowed to recover from the anesthesia on a warm heating pad or water bed until they regained consciousness. Histology. At selected time points, mice from each treatment group were euthanized, and testicular tissues to be examined were fixed in 10% formalin in PBS, pH 7.4, at 4° C. for 24 hours. Small slits in the testis capsule were made to allow penetration of the fixative. Fixed samples were washed four times with PBS, and embedded in paraffin using a Tissue Tek-II tissue processor (MET). Sections of 8 μm thickness were cut, stained with haemotoxylin and eosin (H&E), and mounted with Aquamount (Lerner Laboratories) on glass slides with coverslips. The sections were viewed on a Zeiss or Olympic light microscope with a 40× objective lens (total magnification 400×). Quantitative Histologic Analysis. Quantitative data were collected from the testes of two animals for each of the treatment groups at two months after treatment. (Table 2). For the control group only one mouse was used. The seminiferous tubules in a single section were counted using a 5× objective on a Zeiss light microscope (50× total magnification). Individual seminiferous tubules were examined at 400× total magnification. Seminiferous tubules were considered severely damaged if hardly any cells remained in the tubule, and the tubule consisted of a basement membrane with a single layer of cells, mostly spermatogonia, lying along the basement membrane. Moderately damaged tubules were tubules, in which some of the spermatogenic layers close to the lumen were partially sloughed off. Spermatozoan heads were counted in the tubules and averaged over the total number of tubules counted. Results of Histological Analysis. Obvious histological changes were not seen in the testis until two weeks after treatment. (Data no shown). […] A few Sertoli cell nuclei and spermatogonia were detectable in the periphery along the basement membrane. […] Some spermatids and spermatozoa were seen as well as a few spermatocytes."}, "[3]": {"tested_on": "male germ cells in the testis", "conditions": "mice, cited from earlier work"}, "testis germ cells": {"tested_on": "testis germ cells", "experiment": "Busulfan depopulation of testis before microinjection (Example 15)", "format": "in vivo, mice", "conditions": "IP 4 μg/g body wt.", "description": "The method of delivery (Winston, R. M. L., Microsurgical reanastomosis of the rabbit oviduct and its functional and pathological sequelae, Brit. J. Obstet. Gynaecol. 82:513-522 ([1975]) of viral particles into a single vas efferens, and thence to the seminiferous tubules, was first optimized in several mice (FIGS. 1a-1d). The mice were treated with busulfan (Myleran: Glaxo Wellcome) 14 days before microsurgery to maximize the chance of viral particles gaining access to spermatogonia, which lie on the basement lamella of the tubules. Busulfan, an alkylating cytotoxic agent, depopulates the testis (Bucci, L. and Meistrich, M., Effects of busulfan on murine spermatogenesis: cytotoxicity, sterility, sperm abnormalities, and dominant lethal mutations, Mut. Res. 176:259-268 [1987]). […] This implies that stem cells remain viable and can repopulate the testis. Stem cell spermatogonia are known to be resistant to insults, often surviving when other germ cell types are destroyed (Huckins, C. & Oakberg, W. F., Morphological and quantitative analysis of spermatogonia in mouse testes using whole mounted seminiferous tubules. II. The irradiated testes, Anat. Rec. 192:529-42 [1978])."}, "male germ cells": {"tested_on": "male germ cells", "experiment": "In vivo transduction of male germ cells followed by natural matings, transgenic progeny by PCR and Southern blot", "set-up": "species or system C57/B1/6J mice", "conditions": "IP 4 μg/gm body wt before in vivo transduction"}},
  "note": "“And” between values parts separate entries of the source, which are not always exact repeats. Equal entries are not always repeated.",
  "data": [
    {"smiles": "CS(=O)(=O)OCCCCOS(C)(=O)=O", "note": "[Busulfan, 1,4-butanediol dimethanesulphonate]", "values": [
      {"measurement": "mature spermatozoa in testis", "setting": "[1]", "value": "Very few mature spermatozoa were present"},
      {"measurement": "Total No. Sperm heads", "setting": "[2]; in 50 tubules", "value": "957 and 764"},
      {"measurement": "Average No. sperm heads/tubule", "setting": "[2]", "value": "19 and 15"},
      {"measurement": "depopulation of seminiferous tubules, comparison of treatment groups", "setting": "[2]", "value": "damage to the spermatogenic process"},
      {"measurement": "Moderately damaged tubules, percent of tubules counted", "setting": "[2]; one animal per line", "value": "7% and 3%"},
      {"measurement": "No. Moderately damaged (seminiferous tubules)", "setting": "[2]; one animal per line", "value": "5 and 2"},
      {"measurement": "No. Severely damaged (seminiferous tubules)", "setting": "[2]; one animal per line", "value": "1 (1%) and 3"},
      {"measurement": "Severely damaged tubules, percent of tubules counted", "setting": "[2]; one animal per line", "value": "1 (1%) and 10%"},
      {"measurement": "depletion of male germ cells", "setting": "[3]; 13 mg-40 mg/kg body wt.", "value": "deplete male germs cells in the testis"},
      {"measurement": "duration of azoospermia after treatment", "setting": "[3]; doses over 30 mg/kg body weight", "value": "up to 56 days"},
      {"measurement": "elimination of germ cells from the tubules", "setting": "testis germ cells", "value": "many of the spermatocytes, spermatids and spermatozoa were eliminated from the tubules"},
      {"measurement": "recovery of testis and fertility", "setting": "testis germ cells", "value": "the testis recovered three to four months afterward and fertility was restored"},
      {"measurement": "effect of pre-treatment on transduction of spermatogonia", "setting": "male germ cells", "value": "enhanced the transduction of spermatogonia"}
    ]}
  ]
}
